The text below walks through data of patent US10112899B2 (ViiV HEALTHCARE UK LIMITED, priority 2014, dated 2018).

For the first assay, the system named is HIV in the HTLV-1 transformed cell line MT-4. In words: organism not typed. It is filed as cell-based. As to conditions: MT4, 96 h, MT-4 cells; luciferase/cell titer glo readout after 96 hours; 10 point dose response. For orientation: In ATP-based viability assays light output follows the ATP content of the culture.
In the case of `Cc1c(-c2c(C)c3c(c(C)c2[C@H](OC(C)(C)C)C(=O)O)CN(C(=O)c2cccc4c2CCC4)C3)cc(F)c2c1CCCO2` (atropisomer, axis not shown; (M)) [Example 161, (S)-2-(tert-butoxy)-2-(2-(2,3-dihydro-1H-indene-4-carbonyl)-6-((M)-8-fluoro-5-methylchroman-6-yl)-4,7-dimethylisoindolin-5-yl)acetic acid], the IC50 – broadly, the concentration that inhibits the measured activity by half – was determined as 3 nM.
With `Cc1ccc(-c2c(C)c3c(c(C)c2[C@H](OC(C)(C)C)C(=O)O)CN(C(=O)c2cncc(C)c2)C3)cc1` [Example 236, (S)-2-(tert-butoxy)-2-(4,7-dimethyl-2-(5-methylnicotinoyl)-6-(p-tolyl)isoindolin-5-yl)acetic acid], inhibition was half-maximal at 5 nM (IC50).
Take `Cc1ccc(-c2c(C)c3c(c(C)c2[C@H](OC(C)(C)C)C(=O)O)CN(C(=O)N(C)C2CCCCC2)C3)cc1` [Example 67, (2S)-2-(tert-butoxy)-2-{2-[cyclohexyl(methyl)carbamoyl]-4,7-dimethyl-6-(4-methylphenyl)-2,3-dihydro-1H-isoindol-5-yl}acetic acid]: the half-maximal inhibitory concentration (IC50) stood at 55 nM.
In the case of `Cc1ccc(-c2c(C)c3c(c(C)c2[C@H](OC(C)(C)C)C(=O)O)CN(C(=O)N2CCC(C)(C)C2)C3)cc1` [Example 291, (S)-2-(tert-butoxy)-2-(2-(3,3-dimethylpyrrolidine-1-carbonyl)-4,7-dimethyl-6-(p-tolyl)isoindolin-5-yl)acetic acid], 5 nM corresponded to half-maximal inhibition (IC50).
The molecule `Cc1c(-c2c(C)c3c(c(C)c2[C@H](OC(C)(C)C)C(=O)O)CN(C(=O)CC(C)(C)C)C3)cc(F)c2c1CCCO2` (atropisomer, axis not shown; (M)) [Example 104, (S)-2-(tert-butoxy)-2-((M)-2-(3,3-dimethylbutanoyl)-6-(8-fluoro-5-methylchroman-6-yl)-4,7-dimethylisoindolin-5-yl)acetic acid] returned an IC50 of 2 nM.
`Cc1ccc(-c2c(C)c3c(c(C)c2[C@H](OC(C)(C)C)C(=O)O)CN(C(=O)c2cc(Cl)c(F)c(Cl)c2)C3)cc1` [Example 281, (S)-2-(tert-butoxy)-2-(2-(3,5-dichloro-4-fluorobenzoyl)-4,7-dimethyl-6-(p-tolyl)isoindolin-5-yl)acetic acid] displayed an IC50 of 17 nM.
`COc1cc(F)cc(C(=O)N2Cc3c(C)c(-c4cc(F)c5c(c4C)CCCO5)c([C@H](OC(C)(C)C)C(=O)O)c(C)c3C2)c1` (atropisomer, axis not shown; (M)) [Example 140, (S)-2-(tert-butoxy)-2-((M)-2-(3-fluoro-5-methoxybenzoyl)-6-(8-fluoro-5-methylchroman-6-yl)-4,7-dimethylisoindolin-5-yl)acetic acid] gave an IC50 of 2 nM.
As for `COc1cccc(C(=O)N2Cc3c(C)c(-c4ccc(C)cc4)c([C@H](OC(C)(C)C)C(=O)O)c(C)c3C2)c1C` [Example 258, (S)-2-(tert-butoxy)-2-(2-(3-methoxy-2-methylbenzoyl)-4,7-dimethyl-6-(p-tolyl)isoindolin-5-yl)acetic acid], the IC50 turned out to be 15 nM. Against the preceding molecule, the IC50 is about 7.5-fold higher.
Molecule `Cc1ccc(-c2c(C)c3c(c(C)c2[C@H](OC(C)(C)C)C(=O)O)CN(C(=O)N2CCC(N4CCOCC4)CC2)C3)cc1` [Example 98, (S)-2-(tert-butoxy)-2-(4,7-dimethyl-2-(4-morpholinopiperidine-1-carbonyl)-6-(p-tolyl)isoindolin-5-yl)acetic acid] returned an IC50 of 2300 nM.
The same measure, in the same setting: in the case of `Cc1ccc(-c2c(C)c3c(c(C)c2[C@H](OC(C)(C)C)C(=O)O)CN(C(=O)c2cc(F)c(Cl)c(F)c2)C3)cc1` [Example 282, (S)-2-(tert-butoxy)-2-(2-(4-chloro-3,5-difluorobenzoyl)-4,7-dimethyl-6-(p-tolyl)isoindolin-5-yl)acetic acid] it was 7 nM.
For the molecule `Cc1ccc(-c2c(C)c3c(c(C)c2[C@H](OC(C)(C)C)C(=O)O)CN(C(=O)c2cc(F)c(F)c(Cl)c2)C3)cc1` [Example 280, (S)-2-(tert-butoxy)-2-(2-(3-chloro-4,5-difluorobenzoyl)-4,7-dimethyl-6-(p-tolyl)isoindolin-5-yl)acetic acid], the IC50 stood at 8 nM.
`Cc1ccc(-c2c(C)c3c(c(C)c2[C@H](OC(C)(C)C)C(=O)O)CN(C(=O)c2cccc4c2OCO4)C3)cc1` [Example 275, (S)-2-(2-(benzo[d][1,3]dioxole-4-carbonyl)-4,7-dimethyl-6-(p-tolyl)isoindolin-5-yl)-2-(tert-butoxy)acetic acid] yielded an IC50 of 5 nM.
Same read-out and setting: in the case of `Cc1ccc(-c2c(C)c3c(c(C)c2[C@H](OC(C)(C)C)C(=O)O)CN(C(=O)N2CC[C@@H](F)C2)C3)cc1` [Example 96, (S)-2-(tert-butoxy)-2-(2-((R)-3-fluoropyrrolidine-1-carbonyl)-4,7-dimethyl-6-(p-tolyl)isoindolin-5-yl)acetic acid] it was 14 nM; in that of `COc1ccc(C)cc1C(=O)N1Cc2c(C)c(-c3ccc(C)cc3)c([C@H](OC(C)(C)C)C(=O)O)c(C)c2C1` [Example 250, (S)-2-(tert-butoxy)-2-(2-(2-methoxy-5-methylbenzoyl)-4,7-dimethyl-6-(p-tolyl)isoindolin-5-yl)acetic acid], 4 nM.
The molecule `Cc1c(-c2c(C)c3c(c(C)c2[C@H](OC(C)(C)C)C(=O)O)CN(C(=O)c2ccccc2)C3)cc(F)c2c1CCCO2` (atropisomer, axis not shown; (M)) [Example 158, (S)-2-(2-benzoyl-6-((M)-8-fluoro-5-methylchroman-6-yl)-4,7-dimethylisoindolin-5-yl)-2-(tert-butoxy)acetic acid] gave an IC50 of 2 nM.
For the molecule `Cc1ccc(-c2c(C)c3c(c(C)c2[C@H](OC(C)(C)C)C(=O)O)CN(Cc2ccc(F)cc2)C3)cc1` [Example 2, (S)-2-(tert-Butoxy)-2-(2-(4-fluorobenzyl)-4,7-dimethyl-6-(p-tolyl)isoindolin-5-yl)acetic acid], the IC50 was 36 nM.
In turn, `Cc1c(-c2c(C)c3c(c(C)c2[C@H](OC(C)(C)C)C(=O)O)CN(C(=O)N2CCOC[C@@H]2C)C3)cc(F)c2c1CCCO2` (atropisomer, axis not shown; (M)) [Example 209, (S)-2-(tert-butoxy)-2-((M)-6-(8-fluoro-5-methylchroman-6-yl)-4,7-dimethyl-2-((S)-3-methylmorpholine-4-carbonyl)isoindolin-5-yl)acetic acid] returned an IC50 of 23 nM.
As to `Cc1ccc(-c2c(C)c3c(c(C)c2[C@H](OC(C)(C)C)C(=O)O)CN(C(=O)c2cccc4sccc24)C3)cc1` [Example 166, (S)-2-(2-(benzo[b]thiophene-4-carbonyl)-4,7-dimethyl-6-(p-tolyl)isoindolin-5-yl)-2-(tert-butoxy)acetic acid], the IC50 came to 27 nM. The IC50 values of the last two molecules are within 1.5-fold of each other.
The molecule `Cc1cc(Cl)ccc1-c1c(C)c2c(c(C)c1[C@H](OC(C)(C)C)C(=O)O)CN(C(=O)CC(C)(C)C)C2` [Example 325, (2S)-2-(tert-butoxy)-2-(6-(4-chloro-2-methylphenyl)-2-(3,3-dimethylbutanoyl)-4,7-dimethylisoindolin-5-yl)acetic acid] displayed an IC50 of 13 nM.
The molecule `Cc1cc(C)cc(C(=O)N2Cc3c(C)c(-c4cc(F)c5c(c4C)CCCO5)c([C@H](OC(C)(C)C)C(=O)O)c(C)c3C2)c1` (atropisomer, axis not shown; (M)) [Example 191, (S)-2-(tert-butoxy)-2-((M)-2-(3,5-dimethylbenzoyl)-6-(8-fluoro-5-methylchroman-6-yl)-4,7-dimethylisoindolin-5-yl)acetic acid] had an IC50 of 2 nM.
In turn, `Cc1ccc(-c2c(C)c3c(c(C)c2C(OC(C)(C)C)C(=O)O)CN(Cc2ccc(F)cc2)C3)cc1` (stereo not drawn) [Example 1, 2-(tert-Butoxy)-2-(2-(4-fluorobenzyl)-4,7-dimethyl-6-(p-tolyl)isoindolin-5-yl)acetic acid] gave an IC50 of 35 nM.
As for `COc1ccccc1C(=O)N1Cc2c(C)c(-c3ccc(C)cc3)c([C@H](OC(C)(C)C)C(=O)O)c(C)c2C1` [Example 163, (S)-2-(tert-butoxy)-2-(2-(2-methoxybenzoyl)-4,7-dimethyl-6-(p-tolyl)isoindolin-5-yl)acetic acid], half-maximal inhibition (IC50) was put at 4 nM.
Same read-out and setting: under `Cc1ncccc1C(=O)N1Cc2c(C)c(-c3cc(F)c4c(c3C)CCCO4)c([C@H](OC(C)(C)C)C(=O)O)c(C)c2C1` (atropisomer, axis not shown; (M)) [Example 142, (S)-2-(tert-butoxy)-2-((M)-6-(8-fluoro-5-methylchroman-6-yl)-4,7-dimethyl-2-(2-methylnicotinoyl)isoindolin-5-yl)acetic acid] stands 31 nM; under `Cc1c(Cl)cccc1C(=O)N1Cc2c(C)c(-c3cc(F)c4c(c3C)CCCO4)c([C@H](OC(C)(C)C)C(=O)O)c(C)c2C1` (atropisomer, axis not shown; (M)) [Example 172, (S)-2-(tert-butoxy)-2-((M)-2-(3-chloro-2-methylbenzoyl)-6-(8-fluoro-5-methylchroman-6-yl)-4,7-dimethylisoindolin-5-yl)acetic acid], 7 nM; under `COc1ccc(F)cc1C(=O)N1Cc2c(C)c(-c3cc(F)c4c(c3C)CCCO4)c([C@H](OC(C)(C)C)C(=O)O)c(C)c2C1` (atropisomer, axis not shown; (M)) [Example 150, (S)-2-(tert-butoxy)-2-((M)-2-(5-fluoro-2-methoxybenzoyl)-6-(8-fluoro-5-methylchroman-6-yl)-4,7-dimethylisoindolin-5-yl)acetic acid], 4 nM.
Still for that read-out and setting: in the case of `COc1cccc(C(=O)N2Cc3c(C)c(-c4cc(F)c5c(c4C)CCCO5)c([C@H](OC(C)(C)C)C(=O)O)c(C)c3C2)c1F` (atropisomer, axis not shown; (M)) [Example 148, (S)-2-(tert-butoxy)-2-((M)-2-(2-fluoro-3-methoxybenzoyl)-6-(8-fluoro-5-methylchroman-6-yl)-4,7-dimethylisoindolin-5-yl)acetic acid] it was 9 nM.

Still in this assay, the particulars now being: MT-4 cells; luciferase/cell titer glo readout after 96 hours; 10 point dose response.
Molecule `Cc1ccc(-c2c(C)c3c(c(C)c2[C@H](OC(C)(C)C)C(=O)O)CN(C(=O)N2CCCCC2)C3)c(Cl)c1` [Example 322, (2S)-2-(tert-butoxy)-2-(6-(2-chloro-4-methylphenyl)-4,7-dimethyl-2-(piperidine-1-carbonyl)isoindolin-5-yl)acetic acid] gave a 50% inhibitory concentration (IC50) of 5 nM.
